{"source": "patent US5770617A", "about": "“Terbenzimidazoles useful as antifungal agents” (Rutgers, The State University of New Jersey, priority 1997, dated 1998)", "key": {"[1]": {"system": "yeast cells expressing nonfunctional yeast topoisomerase I", "assay": "Yeast cytotoxicity assay, nonfunctional yeast topoisomerase I", "assay_type": "cell-based, S. cerevisiae", "from_the_text": "(§1) The topoisomerase I-specific in vivo cytotoxicity assay was adapted from A. M. Knab et al., J. Biol. Chem., 268, 22322 (1993). In this system, various topoisomerase I genes or cDNAs cloned into the single-copy yeast plasmid vector (YCpGAL1; Knab et al., cited above) are expressed under the control of the GAL1 promoter in the JN2-134 strain of S. cerevisiae (MAT, rad52::Leu2, trp1, ade2-1, his7, ura3-52, ise1, top1-1, and leu2; M. A. Bjornsti et al., Cancer Res., 49, 6318 (1989)). The topoisomerase I gene or cDNA constructs in the vector are, respectively, the wild-type yeast topoisomerase I gene (YCpGAL-ScTOP1; need cite (1989)), a nonfunctional topoisomerase I gene where the active site tyrosine-727 is mutated to phenylalanine (YCPGAL1-Sctop1Y727; A. M. Knab et al., J. Biol. Chem., 268, 22322 (1993)), and the wild-type human topoisomerase I cDNA (YCp-GAL-hTOP1; M. A. Bjornsti et al., Cancer Res., 49, 6318 (1989)).\n(§2) To qualitatively test the cytotoxicity and the topoisomerase I specificity of the drugs, yeast cells containing the specified plasmid were grown in dropout medium supplemented with uracil, 2% galactose, and the drug being tested."}, "[2]": {"biological_target": "T1, mammalian DNA topoisomerase I (Homo sapiens, UniProt P11387)", "T1 sequence (P11387 1-765)": "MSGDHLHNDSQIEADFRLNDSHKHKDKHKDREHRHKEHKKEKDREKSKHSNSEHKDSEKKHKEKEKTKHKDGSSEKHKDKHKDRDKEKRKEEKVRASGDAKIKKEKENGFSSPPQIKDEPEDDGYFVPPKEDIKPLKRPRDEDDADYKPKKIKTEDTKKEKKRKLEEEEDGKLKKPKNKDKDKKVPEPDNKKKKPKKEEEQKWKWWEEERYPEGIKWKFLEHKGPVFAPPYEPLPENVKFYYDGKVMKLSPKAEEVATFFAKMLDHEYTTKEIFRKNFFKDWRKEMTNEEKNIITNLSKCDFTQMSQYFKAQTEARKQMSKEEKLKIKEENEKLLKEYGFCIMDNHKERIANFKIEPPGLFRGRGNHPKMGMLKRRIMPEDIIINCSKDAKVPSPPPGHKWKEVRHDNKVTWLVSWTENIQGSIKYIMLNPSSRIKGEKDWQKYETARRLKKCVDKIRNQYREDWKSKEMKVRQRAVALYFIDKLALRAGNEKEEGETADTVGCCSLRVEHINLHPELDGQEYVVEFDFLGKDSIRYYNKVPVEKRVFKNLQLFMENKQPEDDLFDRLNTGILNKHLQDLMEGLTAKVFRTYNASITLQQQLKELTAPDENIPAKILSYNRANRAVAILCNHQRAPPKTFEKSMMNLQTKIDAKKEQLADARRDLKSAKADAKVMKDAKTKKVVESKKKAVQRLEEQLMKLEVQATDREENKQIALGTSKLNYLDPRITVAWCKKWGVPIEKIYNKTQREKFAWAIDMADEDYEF", "details": "cited from earlier work"}, "[3]": {"system": "yeast cells expressing human topoisomerase I", "assay": "Yeast cytotoxicity assay, human topoisomerase I", "assay_type": "cell-based, S. cerevisiae", "from_the_text": "as §1, §2"}, "[4]": {"system": "yeast cells expressing yeast topoisomerase I", "assay": "Yeast cytotoxicity assay, yeast topoisomerase I", "assay_type": "cell-based, S. cerevisiae", "from_the_text": "as §1, §2"}, "[5]": {"biological_target": "T2, Aspergillus topoisomerase I (Aspergillus nidulans, UniProt Q5BGS7)", "T2 construct": "about 105 kDa by phosphate transfer", "T2 sequence (Q5BGS7 1-871)": "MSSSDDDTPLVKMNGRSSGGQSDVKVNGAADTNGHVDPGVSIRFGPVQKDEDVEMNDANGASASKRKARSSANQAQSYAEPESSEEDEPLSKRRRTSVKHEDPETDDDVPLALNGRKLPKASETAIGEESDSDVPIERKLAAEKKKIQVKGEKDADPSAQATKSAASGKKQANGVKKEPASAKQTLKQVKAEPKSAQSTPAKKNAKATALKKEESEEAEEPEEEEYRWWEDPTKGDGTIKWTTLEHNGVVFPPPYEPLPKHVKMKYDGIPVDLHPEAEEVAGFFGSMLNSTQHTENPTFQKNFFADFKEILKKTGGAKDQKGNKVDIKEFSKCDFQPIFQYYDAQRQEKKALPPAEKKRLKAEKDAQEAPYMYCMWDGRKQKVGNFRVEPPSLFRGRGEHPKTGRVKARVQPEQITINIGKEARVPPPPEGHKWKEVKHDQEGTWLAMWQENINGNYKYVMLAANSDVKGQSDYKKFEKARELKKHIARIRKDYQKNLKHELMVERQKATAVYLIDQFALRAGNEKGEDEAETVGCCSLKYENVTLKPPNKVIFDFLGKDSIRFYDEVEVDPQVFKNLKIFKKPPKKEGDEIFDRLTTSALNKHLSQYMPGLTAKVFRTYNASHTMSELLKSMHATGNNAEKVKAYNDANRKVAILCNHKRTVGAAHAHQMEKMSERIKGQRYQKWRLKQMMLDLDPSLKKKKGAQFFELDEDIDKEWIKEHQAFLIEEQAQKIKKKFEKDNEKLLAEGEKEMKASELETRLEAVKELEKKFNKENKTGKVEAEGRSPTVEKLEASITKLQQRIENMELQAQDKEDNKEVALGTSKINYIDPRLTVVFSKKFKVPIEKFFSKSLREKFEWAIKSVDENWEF", "assay": "Topoisomerase I cleavage assay, Aspergillus enzyme", "assay_type": "biochemical", "details": "DNA cleavage assay", "experimental": "Two liters of YG medium (0.5% yeast extract and 2% glucose) were inoculated with approximately 5×10^8 conidia/ml. After 16 hours of growth at 37° C., the mycelia were collected, washed with Buffer I (50 mM Tris-HCl, pH 7.7, 1 mM EDTA, 1 mM EGTA, 10% glycerol, 1 mM phenylmethylsulfonyl fluoride and 1 mM 2-mercaptoethanol), and quickly chilled in liquid nitrogen. The frozen mycelia (approximately 20 grams) were ground to powder and resuspended in 300 ml of Buffer I. The lysate was centrifuged at 10K rpm in a Sorval HB3 Rotor for 15 minutes to remove cell debris. The supernatant was made 6% in polyethylene glycol (v/v) and 1M NaCl. After one hour on ice with gentle stirring, the solution was centrifuged at 14K rpm in a Sorvall Rotor for 30 minutes to remove nucleic acids.\nSubsequent steps in purification were the same as described previously for purification of recombinant human DNA topoisomerase I (B. Gatto et al., Cancer Res., 56, 2795 (1996)). Briefly, the supernatant was chromatographed directly onto a hydroxyapatite Bio-gel HTP (BioRad Laboratories, Richmond, Calif.) column. Fractions containing relaxation activity were pooled, diluted and then loaded onto a BioRex70 column (BioRad Laboratories, Richmond, Calif.). The column was developed with a linear gradient from 0.2 to 1M KCl. The peak fractions were pooled and dialyzed overnight at 4° C. against 30 mM potassium phosphate, 50% glycerol (v/v), 0.5 mM EDTA, and 1 mM DTT. Recombinant human topoisomerase I was purified from Escherichia coli BL21 (DE3) harboring PET1B as described previously (Gatto et al., Cancer Res., 56, 2795 (1996)).\nDNA topoisomerase I cleavage assays were performed as described by Y.-H. Hsiang et al., J. Biol. Chem., 260, 14873 (1985). YEpG DNA was linearized with BamHI and then 3 '-end-labeled with Klenow polymerase and α[-^32 P]dCTP. Following phenol extraction and ethanol precipitation, the labeled DNA was resuspended in 10 mM Tris, pH 8.0, and 1 mM EDTA. The DNA cleavage assay was done in a reaction mixture (20 μl) containing 40 mM Tris-HCl, pH 7.8, 100 mM KCl, 10 mM MgCl2, 0.5 mM dithiothreitol, 0.5 mM EDTA, 30 μg/ml bovine serum albumin, 20 ng of labeled YEpG DNA, and […] of Aspergillus or human topoisomerase I diluted to various extents. Following incubation at 23° C. for 15 minutes, the reactions were terminated by the addition of SDS (final concentration 1%) and proteinase K (final concentration 200 μg/ml). Proteinase K treatment continued at 37° C. for another 1 hour. The terminated reactions were either alkali-denatured and then loaded (alkaline loading) or loaded directedly in neutral loading buffer (neutral loading) onto a 1% agarose gel in neutral TPE electrophoresis solution. Gel drying and autoradiography were performed as described by Hsiang et al., cited above."}}}
{"smiles": "COc1ccc(-c2nc3ccc([N+](=O)[O-])cc3[nH]2)cc1", "note": "[QS/II/9]", "values": [{"measurement": "cytotoxicity to yeast cells expressing nonfunctional yeast topoisomerase I", "setting": "[1]", "result": "not cytotoxic"}, {"measurement": "inhibition (poisoning) of mammalian DNA topoisomerase I, previous studies", "setting": "[2]", "result": "inhibitors (poisons)"}, {"measurement": "cytotoxicity to yeast cells expressing human topoisomerase I", "setting": "[3]", "result": "highly cytotoxic"}, {"measurement": "cytotoxicity to yeast cells expressing functional yeast topoisomerase I", "setting": "[4]", "result": "not cytotoxic"}, {"measurement": "inhibition (poisoning) of Aspergillus topoisomerase I, in words", "setting": "[5]", "result": "None of the mono-benzimidazoles, including QS/II/50, QS/II/51, QS/II/59A, an QS/II/9, exhibited any inhibitory effect"}]}
